These results are taken from US20110171321A1, “ELASTOMERIC ARTICLE HAVING A BROAD SPECTRUM ANTIMICROBIAL AGENT AND METHOD OF MAKING” (priority 2008, published 2011).

The experiment deals with E. coli, E. faecalis, K. pneumoniae, P. aeruginosa, C. albicans, S. aureus, and S. epidermidis. Kind of experiment: zone of inhibition (ZOI), control articles in each plate. The class given is cell-based. To be noted: 10 μg disk, values not shown. The text has this:
Samples were submitted in duplicate for each sterilization process. […] The diameter of each zone is reported in millimeters. […] The control results are not shown.

As to gentamicin, the “inhibition by positive control” value is listed as “expected inhibition”.
